Data reported in patent US7179821B2, “Method of treating of demyelinating diseases or conditions” (Aventis Pharmaceuticals Inc., priority 2001, dated 2007).
Marks after values point to notes of the source that are not given here.

Tests used:
[1] = system: long-standing (25 days) spinal cord injury of minor intensity; experiment: Chronic crush experiment, 25-day old mild compression injury (1.6 mm), OFT score; format: in vivo, rat; conditions: for OFT score 3 hours after last dose (Day 28, mild) / OFT score 3 hours after last dose: three consecutive daily doses; for OFT score prior to dose (Day 25, mild): group 3 mg/kg po; for OFT score prior to dose (Day 25, mild) / OFT score prior to dose: baseline before dosing
Text: Normal spinal cord diameter is approximately 2.5 mm. This compression represents a moderate injury characterized by initial open field walking scores of 1.5–2.5 in the Open Field Walking Scale. […] The spinal cords of female rats were exposed to laminectomy or crush to a diameter of 1.6 mm. This represented a minor injury, and was designed to result in OFT scores of 4.0 after 25 days of no treatment. […] In this experiment, OFT scores were slightly higher (4.3–4.5), leaving only a small window for improvement. […] Consistent improvement was also observed after once a day ip 0.6 mg/kg 4-AP as well. The statistical differences were based upon the changes for each individual rat (each rat was its own control) using Mann-Whitney U-test. All the behavioral tests on day1, day2 and day3 were performed at 3 hours after gavage. There was no drug given on day3 (first day started to give drug was day 0).

[2] = system: acute bladder irritation; experiment: Bladder irritation in the rat (protamine sulfate/KCl model), continuous open cystometry; format: in vivo; conditions: intravenous, cumulative dose-response, urethane anesthetized rats, P=0.0019
Protocol: Fraser et al combined protamine sulfate treatment, thought to breakdown urothelial umbrella cell barrier function, and physiologic urine concentrations of KCl (500 mM). The effects of intravenous HP-184 were compared to vehicle alone (n=4/group) in a cumulative dose-response study in urethane anesthetized rats with acute bladder irritation. Continuous open cystometry, which measures the filling and emptying of the bladder during continuous infusion, was utilized to determine the effect of the drug on bladder irritation. When the bladder is irritated, it contracts more frequently during the same filling rate due to sensitization of C-fiber afferent nerves. FIG. 8 illustrates the dose-dependent decrease in bladder contraction frequency from pre-administration irritation values compared to the effects of vehicle alone.

[3] = system: moderate chronic (35 days post-injury) spinal cord crush; experiment: Long standing moderate spinal cord crush (35 days), OFT score; format: in vivo, rat
Text: A tabular representation of the results from both chronic spinal cord injury studies (drugs first administered 25 days after a mild spinal cord crush and 35 days after a moderate spinal cord crush) are shown in Table 5.
One hundred fifty adult female Wistar rats, 250–300 g weight, obtained from Charles River were housed in the McMaster University Health Sciences Centre (HSC) Central Animal Facilities (CAF) for at least one week. During that time they were exposed to the performance tests described below, to ensure they were familiar with them. Rats were handled daily for 2 weeks prior to surgery.
Rats were anesthetized using isoflurane (3–5%): O2 (1 L/min) in an appropriately equipped surgical suite in the CAF. Temgesic (0.03 mg/kg body weight, subcutaneously (SQ)) was administered prior to surgery for pain relief. Spinal cords were crushed (compressed) with a 3.5 mm wide modified coverslip forceps (Blight 1991, procedure revised by Rathbone laboratory). The forceps were closed to 1.4 mm for 15 sec, which produced injury level equivalent to the mid-level (moderate) outcome on the Gruner scale (1996). The compression injury was otherwise performed according to the procedure described by Blight (1991).
Changes in locomotor behaviour and segmental reflexes were assessed up to 5 weeks post injury. Animals were tested in an open field walking task, hind limb placement and foot orientation. The animals were evaluated on days 2, 7, 14, 21, 28 and 35 after surgery. By 35 days after surgery, almost no further spontaneous recovery occurs. Therefore treatment began on day 35.
HP184 was dissolved in sterilized (autoclaved) deionized reverse-osmosis water acidified with glacial acetic acid (0.1 ml acid per 10 ml of water). 4-AP (Sigma, molecular weight 94.12; Jankowska E. et al., 1982; Gruner et al., 1999) was dissolved in physiological saline (0.6 mg/kg b.w.) and was administered by i.p. injection. One group of rats (vehicle control-1) received by oral gavage vehicle. Behaviourial testing was done immediately prior to receiving the gavage and at 3 hours thereafter. Then, the rats were scarified on day 35. All the other rats received either HP184 by oral gavage (0.3, 1, or 3 mg/kg bw depending on the group) or 4-AP (0.6 mg/kg, i.p.) or vehicle (vehicle control-2) once a day on the 35 to 42 days after surgery. On these days behaviourial tests were done immediately prior to receiving the gavage at 3 and 24 hours thereafter. Then, the rats were perfused on day 43 after the last behaviourial testing.
Statistical analyses were performed on a Macintosh computer using GB-Stat ppc 6.5.2. The behavioral scores were analyzed by the Kruskal-Wallis nonparametric analysis of variance (ANOVA). Post hoc comparisons were made using Mann-Whitney U tests.

[4] = system: RuR-induced flaccid paralysis; experiment: Antagonism of ruthenium red (RuR)-induced flaccid paralysis, flagpole test; format: in vivo, mouse
Protocol: Method and Results: Groups of 4–5 mice (CD-1; Charles River; 25–35 grams) were separately but simultaneously injected ip with ruthenium red and vehicle (1% glacial acetic acid), ruthenium red and 4-AP, or ruthenium red and HP 184. The compound known as “8183” was also tested in this paradigm. Starting at 15 minutes after injections, mice were placed near a “flagpole” apparatus and their ability to support their own body weight (ie, to hold on to the flagpole and not fall) was recorded. Results were recorded as the number of mice that could support their own body weight versus the total number of mice tested. All experiments were performed between 2PM and 4:30PM.

[5] = 10 mg/kg ip with RuR 30 mg/kg ip, 15 min
[6] = 10 mg/kg ip with RuR 30 mg/kg ip, 30 min
[7] = 10 mg/kg ip with RuR 30 mg/kg ip, 45 min
[8] = 30 mg/kg ip with RuR 30 mg/kg ip, 15 min
[9] = 30 mg/kg ip with RuR 30 mg/kg ip, 30 min
[10] = 30 mg/kg ip with RuR 30 mg/kg ip, 45 min

For CCCN(c1ccncc1F)n1cc(C)c2ccccc21 [HP184, N-(3-fluoro-4-pyridinyl)-N-propyl-3-methyl-1H-indole-1-amine], the “OFT improvement compared to vehicle control (Mann-Whitney U-test)” value ([1]; 3 mg/kg po once a day, p=0.0027) was “significant improvement at 30 min to 6 h to day 1”, the “OFT score 3 hours after last dose (Day 28, mild)” value ([1]; 3 mg/kg po once a day) was 4.47 ± .035 and the “OFT score 3 hours after last dose (Day 28, mild)” value ([1]; 3 mg/kg po once a day, listed as HP) was 4.47 ± 0.04. The “OFT improvement compared to vehicle control (Mann-Whitney U-test)” value ([1]; 10 mg/kg po once a day, p=0.014) was “significant improvement at 30 min and 3 h to 12 h”, the “OFT score 3 hours after last dose” value ([1]; 10 mg/kg po once a day) was 4.44 ± 0.03 and the “OFT improvement compared to vehicle control (Mann-Whitney U-test)” value ([1]; 20 mg/kg po once a day, p=0.002) was “significant improvement at 3 h to day 3”. The “OFT score 3 hours after last dose” value ([1]; 20 mg/kg po once a day) was 4.60 ± 0.02, the “% possible improvement (highest score = 5), mild” value ([1]; 3 mpk po) was 22.0%* and the “Delta of OFT score, Day 25 to Day 28 (mild)” value ([1]; 3 mpk po) was “.15”. The “OFT score prior to dose (Day 25, mild)” value [1] was 4.32 ± .016, the “OFT score prior to dose (Day 25, mild)” value ([1]; listed as HP) was 4.32 ± 0.05 and the “OFT score prior to dose” value ([1]; group 10 mg/kg po) was 4.36 ± 0.01. The “OFT score prior to dose” value ([1]; group 20 mg/kg po) was 4.54 ± 0.02, the “bladder contraction frequency in irritated bladders, FIG. 8” value [2] was “significantly decreased bladder contraction frequency in irritated bladders in a dose-dependent fashion” and the “recovery of locomotor function, comparison of the doses” value ([3]; 3 mg/kg po vs 0.3 and 1 mg/kg, days 35–42) was “produced the best recovery of locomotor function”. The “% possible improvement, moderate” value ([3]; 3 mpk po) was 24.8%*, the “Delta of OFT score, Day 35 to Day 39 (moderate)” value ([3]; 3 mpk po) was “.274” and the “OFT score Day 39 (moderate) 3 hrs after last dose” value ([3]; 3 mpk po daily) was 4.17 ± .058. For the same molecule, the “open field locomotor ability (mean OFT scores) vs vehicle, FIGS. 6a and 6b” value ([3]; HP184 0.3, 1 or 3 mg/kg po or 4-AP 0.6 mg/kg ip once a day, days 35–42, treatment effect p<0.01) was “significantly different from that of control animals receiving vehicle”, the “OFT score Day 35 (moderate) prior” value ([3]; group 3 mpk po, baseline before dosing) was 3.89 ± .054 and the “% of mice that could support their own body weight” value [4, 5] was “(93.3%)”. The “number of mice that could support their own body weight versus total tested” value [4, 5] was 14 out of 15, the “% of mice that could support their own body weight” value [4, 6] was “(80%)” and the “number of mice that could support their own body weight versus total tested” value [4, 6] was 12 out of 15. The “% of mice that could support their own body weight” value [4, 7] was “(73.3%)”, the “number of mice that could support their own body weight versus total tested” value [4, 7] was 11 out of 15 and the “% of mice that could support their own body weight” value [4, 8] was “(100%)”. The “number of mice that could support their own body weight versus total tested” value [4, 8] was 15 out of 15, the “% of mice that could support their own body weight” value [4, 9] was “(100%)” and the “number of mice that could support their own body weight versus total tested” value [4, 9] was 15 out of 15. For the same molecule, the “% of mice that could support their own body weight” value [4, 10] was “(100%)”, the “number of mice that could support their own body weight versus total tested” value [4, 10] was 15 out of 15 and the “antagonism of the flaccid paralysis induced by ip RuR (conclusion)” value ([4]; ip, doses of Table 3) was “can antagonize the flaccid paralysis”.
